Laboratory results: PMC11459923, “Identification of novel and potent inhibitors of SARS-CoV-2 main protease from DNA-encoded chemical libraries” (Antimicrobial Agents and Chemotherapy, 2024)

Biological target: SARS-CoV-2 M^pro (Severe acute respiratory syndrome coronavirus 2, UniProt P0DTD1)
Assay: In vitro FRET enzymatic assay (screening at 1 µM and SAR IC50)
Type: biochemical
Conditions: for inhibition at 1 µM: read-out: M^pro inhibition % (comp. conc. 1 µM)

| Structure (SMILES) | IC50 (IC50 ± SEM) | inhibition at 1 µM | M^pro inhibition % (comp. conc. 1 µM) | IC50 (IC50 M^pro) |
| --- | --- | --- | --- | --- |
| N#Cc1cc(C(=O)N[C@H](CC2CCC2)C(=O)N[C@H](CC(=O)N[C@H](Cc2ccncc2)C(=O)NCCN2CCOCC2)Cc2c[nH]c3ccccc23)ccn1 [MP13] | 0.047 ± 0.006 µM | 94.2% |  |  |
| N#Cc1cc(C(=O)N[C@H](CC2CCC2)C(=O)N[C@H](CC(=O)N[C@H](Cc2ccncc2)C(=O)O)Cc2c[nH]c3ccccc23)ccn1 [MP1] |  | 97% |  |  |
| N#Cc1cc(C(=O)N[C@H](CC2CCC2)C(=O)N[C@H](CC(=O)N[C@H](Cc2ccncc2)C(=O)NCc2cccc(Cl)c2)Cc2c[nH]c3ccccc23)ccn1 [MP15] |  | 66.8% |  |  |
| N#Cc1cc(C(=O)N[C@H](CC2CCC2)C(=O)N[C@H](CC(=O)N[C@H](Cc2ccccc2)C(=O)O)Cc2c[nH]c3ccccc23)ccn1 [MP3] |  | ~30% | 30.4% |  |
| N#Cc1cc(C(=O)N[C@H](CC2CCC2)C(=O)N[C@H](CC(=O)N[C@H](Cc2ccncc2)C(=O)NCCc2c[nH]c3ccccc23)Cc2c[nH]c3ccccc23)ccn1 [MP16] | 0.033 ± 0.003 µM | 94.7% |  | 0.047 µM |
| N#Cc1cc(C(=O)N[C@H](Cc2ccc(Cl)cc2)C(=O)N[C@H](CC(=O)N[C@H](Cc2ccncc2)C(=O)O)Cc2c[nH]c3ccccc23)ccn1 [MP10] | 0.071 ± 0.007 µM | 95.7% |  |  |
| N#Cc1cc(C(=O)N[C@H](Cc2ccc(Cl)c(Cl)c2)C(=O)N[C@H](CC(=O)N[C@H](Cc2ccncc2)C(=O)O)Cc2c[nH]c3ccccc23)ccn1 [MP11] | 0.069 ± 0.004 µM | 90.7% |  |  |
| N#Cc1cc(C(=O)N[C@H](CC2CCC2)C(=O)N[C@H](CC(=O)N[C@H](Cc2ccncc2)C(=O)NCc2ccccc2)Cc2c[nH]c3ccccc23)ccn1 [MP12] |  | 96.5% |  |  |
| N#Cc1cc(C(=O)N[C@H](CC2CCC2)C(=O)N[C@H](CC(=O)N[C@H](Cc2ccncc2)C(=O)NCc2ccccn2)Cc2c[nH]c3ccccc23)ccn1 [MP14] | 0.045 ± 0.009 µM | 98.2% |  |  |
| O=Cc1cccc(C(=O)N[C@H](CC2CCC2)C(=O)N[C@H](CC(=O)N[C@H](Cc2ccncc2)C(=O)O)Cc2c[nH]c3ccccc23)c1 [MP7] |  | 100% |  |  |
| N#Cc1cc(C(=O)N[C@H](CC2CCC2)C(=O)N[C@H](CC(=O)N[C@H](Cc2ccc(Cl)cc2)C(=O)O)Cc2c[nH]c3ccccc23)ccn1 [MP4] |  | ~30% |  |  |
| N#Cc1cc(C(=O)N[C@H](CC2CCC2)C(=O)NCCC(=O)N[C@H](Cc2ccncc2)C(=O)O)ccn1 [MP5] |  | ~8% | 8.1% |  |
| CCCC[C@@H](NC(=O)c1ccnc(C#N)c1)C(=O)N[C@H](CC(=O)N[C@H](Cc1ccncc1)C(=O)O)Cc1c[nH]c2ccccc12 [MP9] |  | 86.6% |  |  |
| N#Cc1cccc(C(=O)N[C@H](CC2CCC2)C(=O)N[C@H](CC(=O)N[C@H](Cc2ccncc2)C(=O)O)Cc2c[nH]c3ccccc23)c1 [MP6] |  | ~18% | 17.8% |  |
| CC(=O)c1cccc(C(=O)N[C@H](CC2CCC2)C(=O)N[C@H](CC(=O)N[C@H](Cc2ccncc2)C(=O)O)Cc2c[nH]c3ccccc23)c1 [MP8] |  | ~18% | 18.2% |  |
| N#Cc1cc(C(=O)N[C@H](CC2CCC2)C(=O)N[C@H](CC(=O)O)Cc2c[nH]c3ccccc23)ccn1 [MP2] |  | ~2% | 2.2% |  |
